From BindingDB's records for doi:10.1021/acs.jnatprod.0c00921 (Bc Cancer, 2021) come the findings set out here.

What is called IC50 is the concentration at which inhibition is half-maximal. A high value points to a need for much substance.

The assay is described as follows: Inhibition of R1881-stimulated AR transcription driven human LNCaP cells proliferation preincubated for 1 hr followed by R1881 addition and measured after 4 days by Alamar blue assay. A general note: Alamar Blue is a resazurin reagent that responds to reducing activity.

Take `CCC(=O)N[C@H](C[C@H](C)C(Cl)(Cl)Cl)C(=O)N1C(=O)C=C(OC)[C@@H]1C[C@H](C)C(Cl)Cl`: it took 14 µM to reach half-maximal inhibition (IC50).
